Results taken from ChEMBL document CHEMBL5143606, “Selective Wee1 degradation by PROTAC degraders recruiting VHL and CRBN E3 ubiquitin ligases” (Bioorg Med Chem Lett, 2022).
One block for each compound: values may come before it. Active and inactive are the calls of the source. The calls are words filed in the database; no cut-off is given here.

How the values were obtained:
[1] = target: T1, von Hippel-Lindau disease tumor suppressor/Wee1-like protein kinase (Homo sapiens) (UniProt P30291+P40337); experiment: PROTAC activity at VHL/Wee1 in human PC-3 cells assessed as induction of Wee1 degradation by measuring reduction in CDK1 phosphorylation at Tyr15 residue at 100 nM and above concentrations measured after 4 hrs by Western blot analysis; type: cell-based
[2] = target: T1, von Hippel-Lindau disease tumor suppressor/Wee1-like protein kinase (Homo sapiens); experiment: PROTAC activity at VHL/Wee1 in human HeLa S3 cells assessed as induction of Wee1 degradation by measuring reduction in phosphorylation of CDK1 at Tyr15 residue at higher concentration measured after 4 hrs by Western blot analysis; type: cell-based
[3] = target: T1, von Hippel-Lindau disease tumor suppressor/Wee1-like protein kinase (Homo sapiens); experiment: PROTAC activity at VHL/Wee1 in human HeLa S3 cells assessed as induction of Wee1 degradation by measuring reduction in phosphorylation of CDK1 at Tyr15 residue at 30 to 10000 nM measured after 4 hrs by Western blot analysis; type: cell-based; conditions: dose 30-10000 nM
[4] = target: T1, von Hippel-Lindau disease tumor suppressor/Wee1-like protein kinase (Homo sapiens); experiment: PROTAC activity at VHL/Wee1 in human HeLa S3 cells assessed as induction of Wee1 degradation by measuring reduction in phosphorylation of CDK1 at Tyr15 residue at 1 uM measured after 24 hrs by Western blot analysis relative to control; type: cell-based; parameters: scale not given: the % may be the effect or the level left
LNCaP = experiment: Antiproliferative activity against human LNCaP cells assessed as inhibition of cell growth measured after 72 hrs by MTS assay; type: functional, cell-based
[5] = target: T1, von Hippel-Lindau disease tumor suppressor/Wee1-like protein kinase (Homo sapiens); experiment: PROTAC activity at VHL/Wee1 in human HeLa S3 cells assessed as induction of Wee1 degradation at 1 uM measured after 24 to 48 hrs by Western blot analysis; type: cell-based; conditions: time 24-48 hrs
[6] = target: T1, von Hippel-Lindau disease tumor suppressor/Wee1-like protein kinase (Homo sapiens); experiment: PROTAC activity at VHL/Wee1 in human PC-3 cells assessed as induction of Wee1 degradation at 100 nM and above concentrations measured after 4 hrs by Western blot analysis; type: cell-based
[7] = target: T1, von Hippel-Lindau disease tumor suppressor/Wee1-like protein kinase (Homo sapiens); experiment: PROTAC activity at VHL/Wee1 in human BT-549 cells assessed as induction of Wee1 degradation at 100 nM and above concentrations measured after 4 hrs by Western blot analysis; type: cell-based
[8] = target: T1, von Hippel-Lindau disease tumor suppressor/Wee1-like protein kinase (Homo sapiens); experiment: PROTAC activity at VHL/Wee1 in human HeLa S3 cells assessed as induction of Wee1 degradation at 1 uM measured after 4 hrs by Western blot analysis; type: cell-based
PC-3 = experiment: Antiproliferative activity against human PC-3 cells assessed as inhibition of cell growth measured after 72 hrs by MTS assay; type: functional, cell-based; conditions: PC-3, 72 h
[9] = target: T1, von Hippel-Lindau disease tumor suppressor/Wee1-like protein kinase (Homo sapiens); experiment: PROTAC activity at VHL/Wee1 in human LNCaP cells assessed as induction of Wee1 degradation by measuring reduction in CDK1 phosphorylation at Tyr15 residue at 300 nM and above concentrations measured after 4 hrs by Western blot analysis; type: cell-based
[10] = target: T1, von Hippel-Lindau disease tumor suppressor/Wee1-like protein kinase (Homo sapiens); experiment: PROTAC activity at VHL/Wee1 in human LNCaP cells assessed as induction of Wee1 degradation at 300 nM and above concentrations measured after 4 hrs by Western blot analysis; type: cell-based
[11] = target: T1, von Hippel-Lindau disease tumor suppressor/Wee1-like protein kinase (Homo sapiens); experiment: PROTAC activity at VHL/Wee1 in human HeLa S3 cells assessed as induction of Wee1 degradation at 1 uM measured after 24 hrs by Western blot analysis relative to control; type: cell-based
[12] = target: T1, von Hippel-Lindau disease tumor suppressor/Wee1-like protein kinase (Homo sapiens); experiment: PROTAC activity at VHL/Wee1 in human HeLa S3 cells assessed as induction of Wee1 degradation at 1 uM pretreated with VH298 for 2 hrs followed by incubation with compound for 5 hrs by Western blot analysis; type: cell-based
[13] = target: T1, von Hippel-Lindau disease tumor suppressor/Wee1-like protein kinase (Homo sapiens); experiment: PROTAC activity at VHL/Wee1 in human HeLa S3 cells assessed as induction of Wee1 degradation at 30 to 3000 nM measured after 4 hrs by Western blot analysis; type: cell-based; conditions: dose 30-3000 nM
[14] = target: T1, von Hippel-Lindau disease tumor suppressor/Wee1-like protein kinase (Homo sapiens); experiment: PROTAC activity at VHL/Wee1 in human MCF7 cells assessed as induction of Wee1 degradation at 300 nM and above concentrations measured after 4 hrs by Western blot analysis; type: cell-based
MCF7 = experiment: Antiproliferative activity against human MCF7 cells assessed as inhibition of cell growth measured after 72 hrs by MTS assay; type: functional, cell-based; conditions: MCF7, 72 h
BT-549 = experiment: Antiproliferative activity against human BT-549 cells assessed as inhibition of cell growth measured after 72 hrs by MTS assay; type: functional, cell-based; conditions: BT-549, 72 h
[15] = target: T1, von Hippel-Lindau disease tumor suppressor/Wee1-like protein kinase (Homo sapiens); experiment: PROTAC activity at VHL/Wee1 in human BT-549 cells assessed as induction of Wee1 degradation by measuring reduction in CDK1 phosphorylation at Tyr15 residue at 300 nM and above concentrations measured after 4 hrs by Western blot analysis; type: cell-based; conditions: MCF7
[16] = target: T1, von Hippel-Lindau disease tumor suppressor/Wee1-like protein kinase (Homo sapiens); experiment: PROTAC activity at VHL/Wee1 in human HeLa S3 cells assessed as induction of Wee1 degradation by measuring reduction in phosphorylation of CDK1 at Tyr15 residue at 1 uM pretreated with AZD1775 for 2 hrs followed by incubation with compound for 5 hrs by Western blot analysis; type: cell-based
[17] = target: T1, von Hippel-Lindau disease tumor suppressor/Wee1-like protein kinase (Homo sapiens); experiment: PROTAC activity at VHL/Wee1 in human BT-549 cells assessed as induction of Wee1 degradation by measuring reduction in CDK1 phosphorylation at Tyr15 residue at 100 nM and above concentrations measured after 4 hrs by Western blot analysis; type: cell-based
[18] = target: T2, Protein cereblon/Wee1-like protein kinase (Homo sapiens) (UniProt P30291+Q96SW2); experiment: PROTAC activity at CRBN/Wee1 in human HeLa S3 cells assessed as induction of Wee1 degradation at 1 uM measured after 4 hrs by Western blot analysis; type: cell-based
[19] = target: T2, Protein cereblon/Wee1-like protein kinase (Homo sapiens); experiment: PROTAC activity at CRBN/Wee1 in human LNCaP cells assessed as induction of Wee1 degradation at 300 nM and above concentrations measured after 4 hrs by Western blot analysis; type: cell-based
[20] = target: T2, Protein cereblon/Wee1-like protein kinase (Homo sapiens); experiment: PROTAC activity at CRBN/Wee1 in human HeLa S3 cells assessed as induction of Wee1 degradation at 1 uM measured after 24 hrs by Western blot analysis relative to control; type: cell-based
[21] = target: T2, Protein cereblon/Wee1-like protein kinase (Homo sapiens); experiment: PROTAC activity at CRBN/Wee1 in human HeLa S3 cells assessed as induction of Wee1 degradation by measuring reduction in phosphorylation of CDK1 at Tyr15 residue at 100 to 10000 nM measured after 4 hrs by Western blot analysis; type: cell-based; conditions: dose 100-10000 nM
[22] = target: T2, Protein cereblon/Wee1-like protein kinase (Homo sapiens); experiment: PROTAC activity at CRBN/Wee1 in human PC-3 cells assessed as induction of Wee1 degradation at 100 nM and above concentrations measured after 4 hrs by Western blot analysis; type: cell-based
[23] = target: T2, Protein cereblon/Wee1-like protein kinase (Homo sapiens); experiment: PROTAC activity at CRBN/Wee1 in human BT-549 cells assessed as induction of Wee1 degradation by measuring reduction in CDK1 phosphorylation at Tyr15 residue at 100 nM and above concentrations measured after 4 hrs by Western blot analysis; type: cell-based
[24] = target: T2, Protein cereblon/Wee1-like protein kinase (Homo sapiens); experiment: PROTAC activity at CRBN/Wee1 in human HeLa S3 cells assessed as induction of Wee1 degradation at 30 to 10000 nM measured after 4 hrs by Western blot analysis; type: cell-based; conditions: dose 30-10000 nM
[25] = target: T2, Protein cereblon/Wee1-like protein kinase (Homo sapiens); experiment: PROTAC activity at CRBN/Wee1 in human LNCaP cells assessed as induction of Wee1 degradation by measuring reduction in CDK1 phosphorylation at Tyr15 residue at 300 nM and above concentrations measured after 4 hrs by Western blot analysis; type: cell-based
[26] = target: T2, Protein cereblon/Wee1-like protein kinase (Homo sapiens); experiment: PROTAC activity at CRBN/Wee1 in human BT-549 cells assessed as induction of Wee1 degradation at 100 nM and above concentrations measured after 4 hrs by Western blot analysis; type: cell-based
[27] = target: T2, Protein cereblon/Wee1-like protein kinase (Homo sapiens); experiment: PROTAC activity at CRBN/Wee1 in human HeLa S3 cells assessed as induction of Wee1 degradation by measuring reduction in phosphorylation of CDK1 at Tyr15 residue at 1 uM measured after 24 hrs by Western blot analysis relative to control; type: cell-based; parameters: scale not given: the % may be the effect or the level left
[28] = target: T2, Protein cereblon/Wee1-like protein kinase (Homo sapiens); experiment: PROTAC activity at CRBN/Wee1 in human BT-549 cells assessed as induction of Wee1 degradation by measuring reduction in CDK1 phosphorylation at Tyr15 residue at 300 nM and above concentrations measured after 4 hrs by Western blot analysis; type: cell-based; conditions: MCF7
[29] = target: T2, Protein cereblon/Wee1-like protein kinase (Homo sapiens); experiment: PROTAC activity at CRBN/Wee1 in human HeLa S3 cells assessed as induction of Wee1 degradation by measuring reduction in phosphorylation of CDK1 at Tyr15 residue at 1 uM pretreated with AZD1775 for 2 hrs followed by incubation with compound for 5 hrs by Western blot analysis; type: cell-based
[30] = target: T2, Protein cereblon/Wee1-like protein kinase (Homo sapiens); experiment: PROTAC activity at CRBN/Wee1 in human PC-3 cells assessed as induction of Wee1 degradation by measuring reduction in CDK1 phosphorylation at Tyr15 residue at 100 nM and above concentrations measured after 4 hrs by Western blot analysis; type: cell-based
[31] = target: T2, Protein cereblon/Wee1-like protein kinase (Homo sapiens); experiment: PROTAC activity at CRBN/Wee1 in human HeLa S3 cells assessed as induction of Wee1 degradation at 1 uM pretreated with pomalidomide for 2 hrs followed by incubation with compound for 5 hrs by Western blot analysis; type: cell-based
[32] = target: T2, Protein cereblon/Wee1-like protein kinase (Homo sapiens); experiment: PROTAC activity at CRBN/Wee1 in human MCF7 cells assessed as induction of Wee1 degradation at 300 nM and above concentrations measured after 4 hrs by Western blot analysis; type: cell-based

Activity [1]: Active
Activity [2]: Active
Activity [3]: Active
Activity [4]: 49%
IC50 (LNCaP): 5.2 µM
Activity [5]: Active
Activity [6]: Active
Activity [7]: Active
Activity [8]: Active
IC50 (PC-3): > 20 µM
Activity [9]: Active
Activity [10]: Active
Activity [11]: 34%
Activity [12]: Active
Activity [13]: Active
Activity [14]: Active
IC50 (MCF7): 7 µM
IC50 (BT-549): 2.4 µM
Activity [15]: Active
Activity [16]: Active
Activity [17]: Active
SMILES: C=CCn1c(=O)c2cnc(Nc3ccc(N4CCN(CCCC(=O)N[C@H](C(=O)N5C[C@H](O)C[C@H]5C(=O)NCc5ccc(-c6scnc6C)cc5)C(C)(C)C)CC4)cc3)nc2n1-c1cccc(C(C)(C)O)n1

Activity [18]: Active
Activity [19]: Active
IC50 (LNCaP): 16.6 µM
Activity [20]: 27%
Activity [21]: Active
Activity [22]: Active
Activity [23]: Active
Activity [24]: Active
IC50 (PC-3): > 20 µM
Activity [25]: Active
Activity [26]: Active
Activity [27]: 51%
Activity [28]: Active
Activity [29]: Active
Activity [30]: Active
IC50 (MCF7): 14 µM
Activity [31]: Active
IC50 (BT-549): 7.9 µM
Activity [32]: Active
SMILES: C=CCn1c(=O)c2cnc(Nc3ccc(N4CCN(CCCC(=O)NCCOCCOCCNc5cccc6c5C(=O)N(C5CCC(=O)NC5=O)C6=O)CC4)cc3)nc2n1-c1cccc(C(C)(C)O)n1 (stereo not given)
